In publication PMC11124394, “Novel Combretastatin A-4 Analogs—Design, Synthesis, and Antiproliferative and Anti-Tubulin Activity” (Molecules, 2024):
Like-named read-outs stand apart in the source and are kept apart here.

Columns and labels:
Assay type in all cases: cell-based
[1] = system: HepG2 (liver cancer) cells; test: SRB cytotoxicity assay, HepG2; conditions: Homo sapiens, read-out: Cytotoxicity IC50, HepG2
Description: (§1) The antiproliferative activity was tested on human primary (SW480) and metastatic (SW620) colon cancer, human prostate cancer (PC3), human liver cancer (HepG2), human breast cancer (MDA), human lung cancer (A549), and human immortalized keratinocyte (HaCaT) cell lines obtained from the American Type Culture Collection (ATCC, Rockville, MD, USA). The cells were cultured in EMEM (SW480 and SW620), RPMI 1640 (PC3) or DMEM High Glucose (HepG2, MDA, A549, and HaCaT) with stable glutamine supplemented with 10% heat-inactivated fetal bovine serum (FBS), penicillin (100 U/mL), and streptomycin (100 µg/mL) in 37 °C and 5% CO2/95% air humified incubator. The cells were grown until 80–90% confluence and then were harvested with 0.25% trypsin and used for the experiments. All the reagents for the cell culture were provided by VWR Chemicals.
(§2) Cytotoxicity was tested with the sulforhodamine B (SRB) assay according to the National Cancer Institute protocol with slight modifications. Briefly, cells were seeded on a 96-well plate (5 × 10^3 cells per well). After 24 h incubation, zero-time control cells were fixed with TCA (final concentration 5%) for 1 h at 4 °C. […] The untreated cells were used as the control. After incubation, the cells were fixed with TCA (final concentration 5%) for 1 h at 4 °C, gently washed 4 times with tap water, and left for drying. The dried fixed cells were incubated with SRB solution (0.05% SRB in 1% acetic acid) for 30 min rt, washed four times with 1% acetic acid, and left for drying. The dried cells were dissolved in 10 mM Tris-base solution (pH 10.5) and the absorbance was read at 510 nm.
(§3) The cell viability was presented as a percent of SRB reduction in the treated cells versus that in control cells. The mean absorbance for control cells was assumed as 100%. No-cell control (blank well) absorbance was assumed as 0%, unless the compound was cytostatic, then 0% referred to zero-time control. The IC50 values were calculated using the GraphPad Prism 10.1.2 (324) (USA) software. The most cytotoxic compounds (8 and 20) were selected for further in vitro experiments.

[2] = system: SW480 (primary colon cancer) cells; test: SRB cytotoxicity assay, SW480; conditions: Homo sapiens, read-out: Cytotoxicity IC50, SW480
Description: as §1, §2, §3

A549 (lung cancer) cells = test: SRB cytotoxicity assay, A549; conditions: Homo sapiens, read-out: Cytotoxicity IC50, A549
Description: as §1, §2, §3

[3] = system: six human cancer cell lines (SW480, SW620, PC3, HepG2, MDA, A549) and HaCaT; test: SRB cytotoxicity assay, whole panel; conditions: cell line panel
Description: The antiproliferative properties of the studied combretastatin derivatives were tested on six human cancer cell lines, including primary colon (SW480), metastatic colon (SW620), prostate (PC3), liver (HepG2), breast (MDA), and lung (A549) cancer cells, and non-tumor human immortalized keratinocyte cell line (HaCaT) using the sulforhodamine B (SRB) assay. […] No selectivity was observed against the tumor cell lines when compared to that against the non-tumor cell line. Nevertheless, these values were much higher than the IC50 of the reference compounds (<0.2 μM).
as §1, §2, §3

[4] = system: MDA (breast cancer) cells; test: SRB cytotoxicity assay, MDA; conditions: Homo sapiens, read-out: Cytotoxicity IC50, MDA
Description: as §1, §2, §3

[5] = system: SW620 (metastatic colon cancer) cells; test: SRB cytotoxicity assay, SW620; conditions: Homo sapiens, read-out: Cytotoxicity IC50, SW620
Description: as §1, §2, §3

[6] = system: PC3 (prostate cancer) cells; test: SRB cytotoxicity assay, PC3; conditions: Homo sapiens, read-out: Cytotoxicity IC50, PC3
Description: as §1, §2, §3

[7] = SRB cytotoxicity assay, HaCaT; conditions: human, 48 h culture, mean ± SD, at least three independent experiments, compounds marked * : low solubility, real values might be lower
Description: as §1, §2, §3

[8] = HepG2, SRB assay, 48 h culture, mean ± SD, at least three independent experiments, compounds marked * : low solubility, real values might be lower
[9] = SW480, SRB assay, 48 h culture, mean ± SD, at least three independent experiments, compounds marked * : low solubility, real values might be lower
[10] = A549, SRB assay, 48 h culture, mean ± SD, at least three independent experiments, compounds marked * : low solubility, real values might be lower
[11] = SRB assay, 48 h culture, mean ± SD, at least three independent experiments, compounds marked * : low solubility, real values might be lower
[12] = SW-620, SRB assay, 48 h culture, mean ± SD, at least three independent experiments, compounds marked * : low solubility, real values might be lower
[13] = HaCaT immortalized keratinocyte cells (non-tumor cell line)

SMILES | IC50 [1, 8] | IC50 [2, 9] | IC50 (A549 (lung cancer) cells; [10]) | Cytotoxicity (in words) [3] | IC50 [4, 11] | IC50 [5, 12] | IC50 [6, 11] | IC50 at 48 h [7, 13] | IC50 ([1]; HepG2, 48 h) | IC50 ([2]; SW480, 48 h) | IC50 (A549 (lung cancer) cells; A549, 48 h) | IC50 ([4]; 48 h) | IC50 ([5]; SW-620, 48 h) | IC50 ([6]; 48 h) | IC50 at 48 h ([7]; non-tumor cell line)
COc1ccc(/C(=C\c2cc(OC)c(OC)c(OC)c2)C(=O)O)cc1Br [Compound 3] | > 100 µM | > 100 µM | > 100 µM | does not have any anticancer potential | > 100 µM | > 100 µM | > 100 µM | > 100 µM |  |  |  |  |  |  | 
COC(=O)/C(=C/c1cc(OC)c(OC)c(OC)c1)c1ccc(OC)c(Br)c1 [Compound 4] | 63.7 ± 12.6 µM | 57.6 ± 9.4 µM | 53 ± 10.8 µM |  | 55.2 ± 17.3 µM | 61.8 ± 11.4 µM | 65.9 ± 16.1 µM | 68.3 ± 19.6 µM |  |  |  |  |  |  | 
CCOC(=O)/C(=C/c1cc(OC)c(OC)c(OC)c1)c1ccc(OC)c(Br)c1 [Compound 5] | 42.1 ± 10.2 µM | 73.6 ± 8.4 µM | 46.6 ± 12.1 µM |  | 45.2 ± 5.5 µM | 57.5 ± 3.9 µM | 43.2 ± 10.2 µM | 45 ± 7.2 µM |  |  |  |  |  |  | 
C#CCOC(=O)/C(=C/c1cc(OC)c(OC)c(OC)c1)c1ccc(OC)c(Br)c1 [Compound 6] | > 100 µM | > 100 µM | > 100 µM |  | > 100 µM | > 100 µM | > 100 µM | > 100 µM |  |  |  |  |  |  | 
COc1ccc(/C(=C\c2cc(OC)c(OC)c(OC)c2)C(=O)OCc2ccccc2)cc1Br [Compound 7] | > 100 µM | > 100 µM | > 100 µM |  | > 100 µM | > 100 µM | > 100 µM | > 100 µM |  |  |  |  |  |  | 
COc1ccc(/C(=C\c2cc(OC)c(OC)c(OC)c2)C(=O)OCCCCCCBr)cc1Br [Compound 9] | > 100 µM | > 100 µM | > 100 µM | did not show any cytotoxicity | > 100 µM | > 100 µM | > 100 µM | > 100 µM |  |  |  |  |  |  | 
CNC(=O)/C(=C/c1cc(OC)c(OC)c(OC)c1)c1ccc(OC)c(Br)c1 [Compound 10] | 50.5 ± 10.5 µM | 52.2 ± 17.9 µM | 49.3 ± 16.3 µM |  | 55.5 ± 20.3 µM | 46 ± 11.4 µM | 44.9 ± 12.1 µM | 55.3 ± 17 µM |  |  |  |  |  |  | 
CCCCNC(=O)/C(=C/c1cc(OC)c(OC)c(OC)c1)c1ccc(OC)c(Br)c1 [Compound 11] | 50.5 ± 17.5 µM | 50.2 ± 11.2 µM | 65.1 ± 17.3 µM |  | 61.4 ± 21.8 µM | 50.8 ± 14.5 µM | 67.2 ± 18.6 µM | 58.6 ± 22.2 µM |  |  |  |  |  |  | 
C#CCNC(=O)/C(=C/c1cc(OC)c(OC)c(OC)c1)c1ccc(OC)c(Br)c1 [Compound 12] | > 100 µM | > 100 µM | > 100 µM |  | > 100 µM | > 100 µM | > 100 µM | > 100 µM |  |  |  |  |  |  | 
COc1ccc(/C(=C\c2cc(OC)c(OC)c(OC)c2)C(=O)NCc2ccccc2)cc1Br [Compound 13] | 56.2 ± 22.2 µM | 59.8 ± 23 µM | 82.1 ± 13.9 µM |  | 59.8 ± 18.8 µM | 62.4 ± 3.1 µM | 55.8 ± 23.7 µM | 68.5 ± 4.8 µM |  |  |  |  |  |  | 
COc1ccc(/C(=C\c2cc(OC)c(OC)c(OC)c2)C(=O)Nc2ccccc2)cc1Br [Compound 14] | > 100 µM | > 100 µM | > 100 µM |  | > 100 µM | > 100 µM | > 100 µM | > 100 µM |  |  |  |  |  |  | 
COc1ccc(/C(=C\c2cc(OC)c(OC)c(OC)c2)C(=O)NCc2ccccc2[N+](=O)[O-])cc1Br [Compound 15] | > 100 µM | > 100 µM | > 100 µM |  | > 100 µM | > 100 µM | > 100 µM | > 100 µM |  |  |  |  |  |  | 
COc1ccc(/C(=C\c2cc(OC)c(OC)c(OC)c2)C(=O)NCc2ccccc2Cl)cc1Br [Compound 16] | > 100 µM | > 100 µM | 92.8 ± 7.7 µM |  | 99.8 ± 3.9 µM | > 100 µM | > 100 µM | > 100 µM |  |  |  |  |  |  | 
COc1ccc(/C(=C\c2cc(OC)c(OC)c(OC)c2)C(=O)NCc2cccc(Cl)c2)cc1Br [Compound 17] | > 100 µM | > 100 µM | > 100 µM |  | > 100 µM | > 100 µM | > 100 µM | > 100 µM |  |  |  |  |  |  | 
COc1ccc(/C(=C\c2cc(OC)c(OC)c(OC)c2)C(=O)NCc2ccc(Cl)cc2)cc1Br [Compound 18] | 89.6 ± 24.4 µM | > 100 µM | 62.2 ± 8.6 µM |  | 66.7 ± 6.4 µM | > 100 µM | > 100 µM | > 100 µM |  |  |  |  |  |  | 
CCCN(CCC)C(=O)/C(=C/c1cc(OC)c(OC)c(OC)c1)c1ccc(OC)c(Br)c1 [Compound 19] | > 100 µM | > 100 µM | > 100 µM | did not show any cytotoxicity | > 100 µM | > 100 µM | > 100 µM | > 100 µM |  |  |  |  |  |  | 
COc1ccc(/C(=C\c2cc(OC)c(OC)c(OC)c2)C(=O)N2CCOCC2)cc1Br [Compound 21] | > 100 µM | > 100 µM | > 100 µM |  | > 100 µM | > 100 µM | > 100 µM | > 100 µM |  |  |  |  |  |  | 
COc1ccc(/C(=C\c2cc(OC)c(OC)c(OC)c2)C(=O)N(Cc2ccccc2)Cc2ccccc2)cc1Br [Compound 22] | > 100 µM | > 100 µM | > 100 µM |  | > 100 µM | > 100 µM | > 100 µM | > 100 µM |  |  |  |  |  |  | 
COc1cc2c(c(OC)c1OC)-c1ccc(OC)c(=O)cc1[C@@H](NC(C)=O)CC2 [colchicine, reference compound] |  |  |  |  |  |  |  |  | 0.107 ± 0.025 µM | 0.166 ± 0.065 µM | 0.094 ± 0.009 µM | 0.11 ± 0.015 µM | 0.13 ± 0.089 µM | 0.118 ± 0.047 µM | 0.104 ± 0.012 µM
COc1cc([C@@H]2c3cc4c(cc3[C@H](O)[C@H]3COC(=O)[C@H]23)OCO4)cc(OC)c1OC [podophyllotoxin, reference compound] |  |  |  |  |  |  |  |  | 0.0258 ± 0.0056 µM | 0.0444 ± 0.0022 µM | 0.0247 ± 0.0039 µM | 0.0293 ± 0.0028 µM | 0.0292 ± 0.0078 µM | 0.0129 ± 0.0015 µM | 0.0316 ± 0.004 µM
